# Assays:
# murine podocytes [1] = assay: Primary HCS screen of chemical library, cell roundness Z score, PAN injury; format: cell-based; details: PAN 16 μg/ml, 48 hours; for primary hit (protects podocytes from PAN damage): Z-score cutoff ≦−1.28
# Experimental: Screening of chemical libraries, which include the MicroSource Spectrum collection (MicroSource Discovery Systems, Inc., Gaylorsville, C T, 2000 compounds) and Enzo kinase inhibitor array (Enzo Life Sciences, Farmingdale, N.Y., 80 compounds), Sigma, Millipore, Tocris and Cayman (41 compounds), was performed using multiwall plates. Podocytes cultured in multiwall plates were used in these assays. 100 nL of each compound, also in multiwall plates (at a stock concentration of 1 mM to 10 mM in DMSO), was added to each well of a podocyte containing multiwall plate using the Perkin Elmer Janus automated workstation with the help of a 96-pin or 384-pin pin tool (100 nL, PerkinElmer). The compounds were added in the absence or presence of podocyte damaging agent (such as PAN). The plates containing the compounds were subsequently placed in tissue culture incubators and cells were further cultured for 1-72 h at 37° C. A compound that decreased PAN damaged was identified by quantifying the changes in at least one of the following parameters: cell morphology, cell roundedness, F-actin intensity, number of focal adhesions, intensity or size of focal adhesions, length of actin fibers, size of actin fibers, percent damaged or percent healthy cells etc. In certain cases, hits were validated by acquiring a fresh batch of the compound from commercial sources and performing dose-response curves. Images from the primary screen were quantified for cell morphology parameter and were normalized by calculating z-score (z) for each test compound, to compensate for any plate-to-plate variability. (Wiggins, Kidney International, 2007) z was calculated for each of the test compounds using the formula: […]
# where x is the raw measured value with each compound, μ is the mean of all measured raw values across a plate and a is the standard deviation of the measurements. A z-score of […], corresponding to 90% population under the curve, was used as a cutoff to identify primary hits in the assay.
# To identify small molecules that protect podocytes from PAN injury, a chemical library of 2121 pharmacologically active compounds was screened. Podocytes were treated with compounds from the chemical library in the presence of PAN (16 μg/ml) at 37° C. for 48 hours. The assay plates also contained eight positive (PAN and MZR treatment) and eight negative (PAN treatment) control wells. Wells were imaged and analyzed, and the mean cell roundness per cell was calculated for each well. Mean cell roundness was normalized using plate-based positive and negative controls, and a Z score for the change in cell morphology on treatment with each compound (SD away from the plate mean) was calculated. The results from the screen are presented as a graph in FIG. 7A. Wells with nuclei counts. […] Primary hits (compounds that protected podocytes from PAN damage) were identified from the assay using a Z-score cutoff of ≦−1.28 corresponding to the 10% population on one side of the bell-shaped curve. […] Given that our assay is image based, the images from all initial hits were visually inspected manually, which eliminated 10 compounds as nonhits. […] The identified list of primary hit compounds included three Rho kinase inhibitors (Y27632, GSK 429286, and Thiazovivin) and a p38 kinase inhibitor (SB 203580). […] Next, to validate the hit compounds identified from our screen, selected primary hits were reanalyzed using independently obtained powder forms of the compounds.
# murine podocytes [2] = assay: Podocyte HCS phenotypic assay, PAN-induced podocyte injury; format: cell-based; details: for prevention of PAN induced injury, dose-response of percent damaged cells (FIG. 4A-4P): 30 ug/ml PAN, co-treatment, multi-parameter algorithm
# Experimental: Conditionally immortalized human and murine podocytes were used in a majority of the assays. Human and murine podocytes were cultured as have been described previously (Saleem et al., JASN 13, 630-638 (2002); Mundel, Reiser et al., Experimental Cell Research, 236, p 248 (1997)). For example, murine podocytes derived from the mouse line H-2Kb-tsA58 were cultured under permissive conditions at 33° C. on rat-tail collagen coated dishes in RPMI medium supplemented with 10% heat inactivated FBS, penicillin and streptomycin (100 U/ml), and 10 U/ml recombinant mouse γ-interferon. Cells were then trypsinized and re-plated for differentiation at 37° C. in medium without γ-interferon. The cells were differentiated for 0 to 7 days and then reseeded to rat-tail collagen coated multi-well plates at a density of 1500/well or 500/well for 96 and 384 well plates, respectively. Cells were then further differentiated for another 5-14 days in the multi-well plates for subsequent experimentation with various reagents prior to fixation and analyses.
# In some embodiments, podocytes were cultured at 37° C. for the first 7 days of differentiation in large tissue culture flasks and subsequently reseeded and further cultured at 37° C. in the 96-well assay plates for the next 4-6 days to provide low well-to-well variability in cell number in the assay plates and healthy podocytes expressing specific and well characterized podocyte markers synaptopodin and podocin.
# Differentiated podocytes were cultured in 96-well or 384-well multiwall optical plates (PerkinElmer, Boston, Mass.). In some embodiments, differentiated podocytes were treated with various amounts of puromycin aminonucleoside (PAN), […] LPS, Adriamycin and other agents. In some embodiments, the cells were co-treated with chemical and other agents (such as mizouribine) to prevent damage from damaging agents (such as PAN). In other embodiments, the rescue agents were added 0-48 h after the addition of injury causing agents. In some embodiments, patient samples such as blood, serum, urine or other samples were added to differentiated podocytes to identify disease causing agents. In some embodiments, primary, differentiated patient podocytes were cultured to identify defects in structure and/or function.
# After culturing for the appropriate time and treatment or control, cultured podocytes in multi-well optical plates were rinsed with phosphate buffered saline (PBS) and subsequently fixed using a solution of paraformaldehyde and sucrose in PBS (at a final concentration of 4% paraformaldehyde and 2% sucrose in PBS) for 30 min at room temperature. Following fixation, the cells were permeabilization using a solution of 0.3% Triton X-100 in PBS for 15 min at room temperature. For visualization of filamentous-actin (F-Actin) in cells, cells were stained with a solution of Alexa fluor 568 phalloidin (Invitrogen), as previously described. HCS CellMask Blue (Invitrogen) was used as a fluorescent stain for visualizing nuclei, cytoplasm and the individual cell boundaries. Additional proteins that were fluorescently labeled and analyzed using appropriate primary mAbs include synaptopodin (synpo, primary mAb from Santa Cruz), Paxillin (primary mAb clone Y113 from Millipore) for quantitation of focal adhesions, beta1 integrin, podocin, WT1 nephrin, CD2-AP may also be used. Other proteins may also be used for labeling. Appropriate secondary antibodies (fluorescently labeled) were used for fluorescent visualizations. High throughput confocal microscopy was done using the Opera LX (Perkin Elmer) with filters and exposure times according to manufacturer's instructions and as described before. Images were used in subsequent image analysis for quantitation of a variety of cellular parameters. Assays were performed in replicate wells for assay robustness.
# Images for each frame of each well in multiple fluorescent channels were acquired using OPERA imaging system. […]
compound,measurement,setting,value
C#C[C@]1(OC(C)=O)CC[C@H]2[C@@H]3CCC4=CC(=NO)CC[C@@H]4[C@H]3CC[C@@]21CC (mixture of isomers) [norgestimate],primary hit (protects podocytes from PAN damage),murine podocytes [1],identified
Cc1cccc(-c2[nH]ncc2-c2ccc3ncccc3n2)n1 [Alk5 Inhibitor2],"prevention of PAN induced injury, dose-response of percent damaged cells (FIG. 4A-4P)",murine podocytes [2],prevented PAN induced injury
O=c1cc(-c2ccc(O)cc2)oc2cc(O)cc(O)c12 [Apigenin],"prevention of PAN induced injury, dose-response of percent damaged cells (FIG. 4A-4P)",murine podocytes [2],prevented PAN induced injury
same,primary hit (protects podocytes from PAN damage),murine podocytes [1],primary hits
COc1ccc2cc3[n+](cc2c1OC)CCc1cc2c(cc1-3)OCO2 [Berberine],"prevention of PAN induced injury, dose-response of percent damaged cells (FIG. 4A-4P)",murine podocytes [2],prevented PAN induced injury
same,primary hit (protects podocytes from PAN damage),murine podocytes [1],primary hits
"C[C@@H]1C[C@H]2[C@@H]3CCC4=CC(=O)C=C[C@]4(C)[C@@]3(F)[C@@H](O)C[C@]2(C)[C@@]1(O)C(=O)CO [DEX, Dexamethasone]",lowest concentration able to protect cells from PAN damage,"murine podocytes [2]; PAN 30 μg/ml, F-actin fiber count, 48 h",0.1 µM
COc1ccc(-c2cc(=O)c3c(O)cc(O)cc3o2)cc1O [Diosmetin],"prevention of PAN induced injury, dose-response of percent damaged cells (FIG. 4A-4P)",murine podocytes [2],prevented PAN induced injury
COc1cc2nc(N3CCN(C(=O)C4COc5ccccc5O4)CC3)nc(N)c2cc1OC (stereo not shown) [Doxazocin],"prevention of PAN induced injury, dose-response of percent damaged cells (FIG. 4A-4P)",murine podocytes [2],prevented PAN induced injury
same,primary hit (protects podocytes from PAN damage),murine podocytes [1],primary hits
CCOc1ccc(Cc2nccc3cc(OCC)c(OCC)cc23)cc1OCC [Ethaverine],"prevention of PAN induced injury, dose-response of percent damaged cells (FIG. 4A-4P)",murine podocytes [2],prevented PAN induced injury
Nc1[nH]nc2nnc(-c3c(-c4ccccc4)nn4ccccc34)cc12 [FR 180204],"prevention of PAN induced injury, dose-response of percent damaged cells (FIG. 4A-4P)",murine podocytes [2],prevented PAN induced injury
CC1=C(C(=O)Nc2cc3cn[nH]c3cc2F)C(c2ccc(C(F)(F)F)cc2)CC(=O)N1 (stereo not shown) [GSK429286],"prevention of PAN induced injury, dose-response of percent damaged cells (FIG. 4A-4P)",murine podocytes [2],prevented PAN induced injury
same,primary hit (protects podocytes from PAN damage),murine podocytes [1],primary hit
O=C1Cc2c([nH]c3ccc(Br)cc23)-c2ccccc2N1 [Kenpoullon],"prevention of PAN induced injury, dose-response of percent damaged cells (FIG. 4A-4P)",murine podocytes [2],prevented PAN induced injury
c1coc(CNc2ncnc3[nH]cnc23)c1 [Kinetin],"prevention of PAN induced injury, dose-response of percent damaged cells (FIG. 4A-4P)",murine podocytes [2],prevented PAN induced injury
"NC(=O)c1ncn([C@@H]2O[C@H](CO)[C@@H](O)[C@H]2O)c1O [MZR, Mizoribine]",EC50,"murine podocytes [2]; Mus musculus, PAN 30 μg/ml, 48 hours, read-out: concentration reducing PAN damage by one half (half-maximal effective concentration)",1.4 µg/mL
same,concentration affording complete protection of podocytes from PAN injury,"murine podocytes [2]; PAN 30 μg/ml, 48 hours",5 µg/mL
same,dose-dependent protection of podocytes from PAN-induced injury,"murine podocytes [2]; PAN 16-30 μg/ml, 48 hours, F-actin fibers and other parameters",dose-dependent protection
same,Z score of cell roundness,"murine podocytes [1]; 37° C., negative Z score = active",−2.31±0.2
COc1nccc(-c2c(-c3ccc(F)cc3)ncn2C2CCC(O)CC2)n1 (stereo not shown) [P38 inhibitor (SB239063)],"prevention of PAN induced injury, dose-response of percent damaged cells (FIG. 4A-4P)",murine podocytes [2],prevented PAN induced injury
"CN(C)c1ncnc2c1ncn2[C@@H]1O[C@H](CO)[C@@H](N)[C@H]1O [PAN, puromycin aminonucleoside]",PAN concentration causing half-maximal damage,"murine podocytes [2]; Mus musculus, 48 h, read-out: PAN concentration causing half-maximal damage (half-maximal inhibitory concentration)",16 µg/mL
C[S+]([O-])c1ccc(-c2nc(-c3ccncc3)c(-c3ccc(F)cc3)[nH]2)cc1 (stereo not shown) [SB 203580],primary hit (protects podocytes from PAN damage),murine podocytes [1],primary hit
O=C(NCc1ccccc1)c1csc(Nc2ccncn2)n1 [Thiazovivin],primary hit (protects podocytes from PAN damage),murine podocytes [1],primary hit
Nc1nc2nc[nH]c2c(=S)[nH]1 [Thioguanidine],"prevention of PAN induced injury, dose-response of percent damaged cells (FIG. 4A-4P)",murine podocytes [2],prevented PAN induced injury
same,primary hit (protects podocytes from PAN damage),murine podocytes [1],primary hits
C[C@@H](N)[C@H]1CC[C@H](C(=O)Nc2ccncc2)CC1 [Y27632],"prevention of PAN induced injury, dose-response of percent damaged cells (FIG. 4A-4P)",murine podocytes [2],prevented PAN induced injury
same,primary hit (protects podocytes from PAN damage),murine podocytes [1],primary hit
C=CC[C@]1(O)CC[C@H]2[C@@H]3CCC4=CC(=O)CCC4=C3C=C[C@@]21C [altrenogest],primary hit (protects podocytes from PAN damage),murine podocytes [1],identified
Agelasine,"prevention of PAN induced injury, dose-response of percent damaged cells (FIG. 4A-4P)",murine podocytes [2],prevented PAN induced injury
same,primary hit (protects podocytes from PAN damage),murine podocytes [1],primary hits
Derusnin,"prevention of PAN induced injury, dose-response of percent damaged cells (FIG. 4A-4P)",murine podocytes [2],prevented PAN induced injury
Mundeserone,"prevention of PAN induced injury, dose-response of percent damaged cells (FIG. 4A-4P)",murine podocytes [2],prevented PAN induced injury
antimycin A,primary hit (protects podocytes from PAN damage),murine podocytes [1],primary hits

# From patent publication US20170269060A1, “Assays and Compounds to Treat Kidney Diseases” (Rush University Medical Center, priority 2014, published 2017)
